Assay results taken from patent US7150974B1, “Parathyroid hormone receptor binding method” (The General Hospital Corporation, priority 1991, dated 2006).

Experiments:
Format in all cases: binding
[1] = biological target: T1, human kidney PTH/PTHrP receptor (Homo sapiens, UniProt Q03431, L389Q); experiment: Radioreceptor assay, COS-7 cells transiently expressing human kidney PTH/PTHrP receptor (HKrk); conditions: human versus rat receptor
T1 construct: The full-length human kidney PTH/PTHrP receptor cDNA, HKrk, was constructed using the BamHI/PvuII fragment of PCR clone #2 and HK-2; expressed in transfected cells; host or cells: COS-7 cells, transient (DEAE/Dextran), pcDNAI
T1 sequence (Q03431 27-593 L389Q): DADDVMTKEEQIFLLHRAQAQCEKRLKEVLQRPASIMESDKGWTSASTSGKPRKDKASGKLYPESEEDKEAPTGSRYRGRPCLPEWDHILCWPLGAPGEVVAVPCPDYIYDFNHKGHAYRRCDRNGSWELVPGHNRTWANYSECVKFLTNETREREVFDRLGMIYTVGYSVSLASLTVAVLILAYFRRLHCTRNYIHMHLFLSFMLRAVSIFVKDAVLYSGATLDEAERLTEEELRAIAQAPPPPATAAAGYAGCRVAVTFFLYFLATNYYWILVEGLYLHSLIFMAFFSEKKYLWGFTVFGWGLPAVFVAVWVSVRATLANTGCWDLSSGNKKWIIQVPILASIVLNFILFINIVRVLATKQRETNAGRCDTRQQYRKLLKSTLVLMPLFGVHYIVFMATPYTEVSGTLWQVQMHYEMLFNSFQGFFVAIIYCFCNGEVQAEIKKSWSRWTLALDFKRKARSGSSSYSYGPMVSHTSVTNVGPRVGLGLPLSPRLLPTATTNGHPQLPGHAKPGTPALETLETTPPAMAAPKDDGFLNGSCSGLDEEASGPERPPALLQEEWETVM
Description: (§1) In brief, the labeled peptide was dissolved in 0.1% trifluoracetic acid (TFA), applied to a C18 Sep-pak cartridge (Waters Associates, Inc., Milford, Mass.) and eluted with a solution of 60% acetonitrile in 0.1% TFA. After lyophilization, the radioligand then was applied to C18-μBondapak column (3.9 mm×30 cm. Waters Associates) and eluted over 30 min with a linear gradient of 30-50% acetonitrile-0.1% TFA at a flow rate of 2 ml/min.
(§2) COS-7 cells were grown in 15 cm plates in DMEM, 10% heat-inactivated […], 10 mg/L gentamycin until 80-90% confluent. Twenty-four hours after transfection by the DEAE/Dextran method (Sambrook et al., supra), with 1-2 μg of plasmid DNA, the cells were trypsinized and replated in multiwell plastic dishes (16 or 35 mm diameter, Costar, Cambridge, Mass.) at a cell concentration of 5×10^4 cells/cm^2). […] After continuing culture for another 48 h, radiorecepter assays were performed. The culture medium was replaced with buffer containing 50 mM Tris-HCL (pH 7.7), 100 mM NaCl, 2 mM CaCl2, 5 mM KCL, 0.5% heat-inactivated fetal bovine serum (GIBCO), and 5% heat-inactivated horse serum (KC Biological Inc., Lenexa, Kans.) immediately before studies were initiated.
(§3) Incubations were terminated by aspirating the buffer, and repeatedly (×3) washing the culture dishes, containing the adherent cells with chilled 0.9% NaCl solution, over a 15 sec period. Cell-bound radioactivity was recovered by the sequential addition (×3) of 1 N NaOH (200 μl) to each well. After 30 min at room temperature, the NaOH was transferred to a glass tube. A second and third extraction with 1 N NaOH (200 μl) were combined with the first, and the total radioactivity was counted in a γ-spectrometer (Packard Instruments, Downers Grove, Ill.).

[2] = biological target: T2, rat bone PTH/PTHrP receptor (Rattus norvegicus, UniProt P25961, E586G); experiment: Radioreceptor assay, COS cells expressing rat bone PTH/PTHrP receptor (R15B); conditions: COS cells expressing R15B, FIG. 13
T2 construct: expressed in transfected cells; host or cells: COS / COS-7 cells, transient, plasmid R15B (pcDNA I)
T2 sequence (P25961 27-591 E586G): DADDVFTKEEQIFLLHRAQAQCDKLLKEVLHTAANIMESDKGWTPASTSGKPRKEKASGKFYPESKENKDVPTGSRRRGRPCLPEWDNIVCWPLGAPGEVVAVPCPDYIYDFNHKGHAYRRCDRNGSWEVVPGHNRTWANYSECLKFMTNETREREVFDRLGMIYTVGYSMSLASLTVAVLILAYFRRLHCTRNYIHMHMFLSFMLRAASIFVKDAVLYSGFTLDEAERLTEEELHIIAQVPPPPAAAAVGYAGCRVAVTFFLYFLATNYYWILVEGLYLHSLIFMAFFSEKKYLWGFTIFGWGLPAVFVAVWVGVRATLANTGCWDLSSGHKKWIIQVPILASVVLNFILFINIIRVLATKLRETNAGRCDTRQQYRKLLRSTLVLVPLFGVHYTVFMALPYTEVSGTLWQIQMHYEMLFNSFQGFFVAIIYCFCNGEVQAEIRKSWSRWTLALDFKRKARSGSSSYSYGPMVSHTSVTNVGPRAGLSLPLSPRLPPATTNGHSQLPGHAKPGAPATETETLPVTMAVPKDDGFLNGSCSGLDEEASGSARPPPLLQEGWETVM
Description: as §1, §2, §3

[3] = biological target: T3, opossum kidney PTH/PTHrP receptor clone, OK-H (Didelphis virginiana, UniProt P25107, I132F/S86P); experiment: Radioreceptor assay, COS cells expressing OK-H; conditions: FIG. 9
T3 construct: expressed in transfected cells; host or cells: COS cells, transient, plasmid OK-H (pcDNA I)
T3 sequence (P25107 other isoform, or with tags, fused parts or gaps S86P/I132F): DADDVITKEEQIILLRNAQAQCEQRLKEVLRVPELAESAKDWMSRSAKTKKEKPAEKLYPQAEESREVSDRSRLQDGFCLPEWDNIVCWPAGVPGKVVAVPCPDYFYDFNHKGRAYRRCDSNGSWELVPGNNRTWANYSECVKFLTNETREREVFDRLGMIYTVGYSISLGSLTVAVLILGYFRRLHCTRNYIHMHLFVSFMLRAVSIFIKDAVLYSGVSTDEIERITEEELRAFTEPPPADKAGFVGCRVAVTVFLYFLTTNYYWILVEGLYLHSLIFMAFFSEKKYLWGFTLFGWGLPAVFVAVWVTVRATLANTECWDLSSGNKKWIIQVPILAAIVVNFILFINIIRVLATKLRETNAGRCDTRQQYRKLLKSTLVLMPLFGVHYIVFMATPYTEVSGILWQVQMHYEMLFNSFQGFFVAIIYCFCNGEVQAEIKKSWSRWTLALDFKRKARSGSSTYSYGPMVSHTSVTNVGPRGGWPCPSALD
Description: as §1, §2, §3

[4] = biological target: T4, opossum kidney PTH/PTHrp receptor clone, OK-O (Didelphis virginiana, UniProt P25107, I132F/S86P); experiment: Radioreceptor assay, COS cells expressing OK-O; conditions: FIG. 11
T4 construct: expressed in transfected cells; host or cells: COS cells, transient, plasmid OK-O (pcDNA I)
T4 sequence (P25107 27-585 S86P/I132F): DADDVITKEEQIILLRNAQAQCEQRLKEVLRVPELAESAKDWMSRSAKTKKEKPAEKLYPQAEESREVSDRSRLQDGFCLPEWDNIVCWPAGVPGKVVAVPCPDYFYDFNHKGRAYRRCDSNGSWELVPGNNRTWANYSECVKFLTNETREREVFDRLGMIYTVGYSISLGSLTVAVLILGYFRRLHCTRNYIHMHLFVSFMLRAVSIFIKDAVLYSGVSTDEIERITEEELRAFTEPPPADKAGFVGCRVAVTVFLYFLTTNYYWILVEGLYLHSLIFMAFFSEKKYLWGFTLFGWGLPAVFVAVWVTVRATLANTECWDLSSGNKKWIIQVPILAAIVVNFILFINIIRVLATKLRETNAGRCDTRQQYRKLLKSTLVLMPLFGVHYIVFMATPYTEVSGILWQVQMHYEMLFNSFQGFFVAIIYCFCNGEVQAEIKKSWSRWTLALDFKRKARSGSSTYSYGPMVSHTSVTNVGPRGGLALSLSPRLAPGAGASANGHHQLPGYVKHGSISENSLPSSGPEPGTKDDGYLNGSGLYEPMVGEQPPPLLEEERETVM
Description: [Nle^8,Nle^18,Tyr^34]bPTH-(1-34)amide (NlePTH), and [Tyr^36]PTHrP(1-36)amide(PTHrP) were iodinated with Na^125I (carrier free, New England Nuclear, Boston, Mass.) as previously reported (Segre et al., J. Biol. Chem. 254: 6980, 1979), and purified by reverse-phase HPLC. In brief, the labeled peptide was dissolved in 0.1% trifluoracetic acid (TFA), applied to a C18 Sep-pak cartridge (Waters Associates, Inc., Milford, Mass.) and eluted with a solution of 60% acetonitrile in 0.1% TFA. After lyophilization, the radioligand then was applied to C18-μBondapak column (3.9 mm×30 cm. Waters Associates) and eluted over 30 min with a linear gradient of 30-50% acetonitrile-0.1% TFA at a flow rate of 2 ml/min. The radioligand eluted in two peaks; the first peak, which eluted at approximately 38% acetonitrile, was used in these studies because it gave higher total and specific bindings. The specific activity was 500±75 mCi/mg, which corresponds to an average iodine-peptide ratio of 1.
COS-7 cells were grown in 15 cm plates in DMEM, 10% heat-inactivated […], 10 mg/L gentamycin until 80-90% confluent. Twenty-four hours after transfection by the DEAE/Dextran method (Sambrook et al., supra), with 1-2 μg of plasmid DNA, the cells were trypsinized and replated in multiwell plastic dishes (16 or 35 mm diameter, Costar, Cambridge, Mass.) at a cell concentration of 5×10^4 cells/cm^2). Cell number increased only slightly after transfection. After continuing culture for another 48 h, radiorecepter assays were performed. […]
as §3, with “After 30 min at room temperature, the NaOH was transferred to a glass tube.” left out, “Ill.). […]” for “Ill.).”

Substance | fold higher affinity with expressed HKrK than with R15B [1] [fold] | inhibition of 125I-PTHrP binding by competitor [2] | inhibition of 125I-PTHrP binding by competitor [3] | inhibition of 125I-PTHrP binding by competitor [4]
[Nle^8,18, Tyr^34]bPTH(3-34)amide | 7 | inhibited | inhibited | inhibited
[Nle^8,18, Tyr^34]bPTH(7-34)amide | – | inhibited | inhibited | inhibited
